Read-outs that look alike come from different tables or passages of the source. Non-standard residues stand in square brackets, D forms with d. Residues, ends and D or L forms follow the SMILES beside them. *: point of attachment. Dolaproine = CO[C@@H]([C@@H]1CCCN1)[C@@H](C)C(=O)O; Dil = CC[C@H](C)[C@H](NC)[C@@H](CC(=O)O)OC; Phe(3-NH2) = Nc1cccc(C[C@H](N)C(=O)O)c1; NMe2Val = CC(C)[C@@H](C(=O)*)N(C)C
Assays:
Test in all cases: Cytotoxicity test for compounds (CellTiter-Glo cell proliferation inhibition)
Assay type in all cases: cell-based
[1] = tested on: Human gastric cancer cells NCI-N87; conditions: 3 days of incubation, CellTiter-Glo, read-out: NCI-87/IC50
Description: (§1) Biological Test Example 1: Cytotoxicity Test for Compounds
(§2) • 96-well clear flat-bottom white plate (Corning, #3610) • RPMI1640 culture medium (Gibco, #A10491-01) • Fetal Bovine Serum (Sigma-Aldrich, #F8687-500ML) • CellTiter-Glo® Luminescent Cell Viability Assay (Promega, # G7572/G7571)
(§3) Human gastric cancer cells NCI-N87 (ATCC, Cat. No.: CRL-5822), human breast cancer cells MDA-MB-468 (Cell Bank of the Committee for Type Culture Collection of the Chinese Academy of Sciences, Cat. No.: TCHu136), and human breast cancer cells KPL-4 (Nanjing Cobioer Biosciences Co., Ltd., Cat. No.: CBP60379) were washed with PBS and digested with 0.25% Trypsin-EDTA trypsin for about 3-10 min. The digestion was terminated with a complete cell culture medium. The cells were centrifuged at 1000 rpm for 5 min, and the supernatant was discarded. The cells were resuspended in a complete cell culture medium. The cell number was counted using a cell counter, and the cells were adjusted to the desired density. 90.0 µL of the cell suspension was added to each well at 3000 cells/well. The cell plate was incubated in a cell incubator at 37°C with 5% CO2 overnight.
(§4) In the experiment, a DMSO control group and test sample groups were set. The cell plate was removed from the incubator to observe cell adherence. After the cells adhered, 10.00 µL of the sample (starting from a final concentration of 10 µM, 5-fold dilution, 9 concentrations) was added to each well. After the mixture was gently shaken uniformly, the plate was incubated in the incubator.
(§5) After 3 days of incubation, 100.0 µL/well of CellTiter-Glo™ (Promega, Cat. No.: G7572/G7571) working solution was added. The plate was shaken on a thermostatic shaker to lyse the cells. After 10 min, the plate was read on a microplate reader.
(§6) Data analysis: GraphPad Prism 8.0 software was used to plot a graph with the Log value of the sample concentration as the abscissa and the Inhibition% as the ordinate. The data were analyzed by Nonlinear regression (curve fit) to obtain the IC50 value of each test sample. Table 1. Inhibition activity of compounds of the present disclosure on cell proliferation

[2] = tested on: human breast cancer cells KPL-4; conditions: 3 days of incubation, CellTiter-Glo, read-out: KPL-4/IC50
Description: as §1, §2, §3, §4, §5, §6

[3] = tested on: human breast cancer cells MDA-MB-468; conditions: 3 days of incubation, CellTiter-Glo, read-out: MDA-MD-468/IC50
Description: as §1, §2, §3, §4, §5, §6

Row | SMILES | IC50 ([1]; Homo sapiens, NCI-N87, 72 h) [nM] | IC50 ([2]; Homo sapiens, KPL4, 72 h) [nM] | IC50 ([3]; Homo sapiens, MDA-MB-468, 72 h) [nM] | IC50 [1] [nM] | IC50 [2] [nM] | IC50 [3] [nM]
1 | C#CC(Cc1cccc(N)c1)OC(=O)[C@H](C)[C@@H](OC)[C@@H]1CCCN1C(=O)C[C@@H](OC)[C@H]([C@@H](C)CC)N(C)C(=O)[C@@H](NC(=O)[C@H](C(C)C)N(C)C)C(C)C (single isomer, unassigned) [Example 21] | < 0.0256 | < 0.0256 | < 0.0256 | – | – | –
2 | CC[C@H](C)[C@@H]([C@@H](CC(=O)N1CCC[C@H]1[C@H](OC)[C@@H](C)C(=O)OC(/C=C/C(=O)OC)Cc1cccc(N)c1)OC)N(C)C(=O)[C@@H](NC(=O)[C@H](C(C)C)N(C)C)C(C)C (single isomer, unassigned) [Example 28] | 3.33 | < 0.0256 | 3.25 | – | – | –
3 | CC[C@H](C)[C@@H]([C@@H](CC(=O)N1CCC[C@H]1[C@H](OC)[C@@H](C)C(=O)OC(/C=C/C(=O)OC)Cc1cccc(N)c1)OC)N(C)C(=O)[C@@H](NC(=O)[C@H](C(C)C)N(C)C)C(C)C (single isomer, unassigned) [Example 29] | – | – | – | 3.73 | < 0.0256 | 3.17
4 | CC[C@H](C)[C@@H]([C@@H](CC(=O)N1CCC[C@H]1[C@H](OC)[C@@H](C)C(=O)N1CCS[C@H](c2cccc(N)c2)C1)OC)N(C)C(=O)[C@@H](NC(=O)[C@H](C(C)C)N(C)C)C(C)C (single isomer, unassigned) [Example 60-P1] | 9.63 | 5.81 | 8.02 | – | – | –
5 | CC[C@H](C)[C@@H]([C@@H](CC(=O)N1CCC[C@H]1[C@H](OC)[C@@H](C)C(=O)N1CCSC(c2cccc(N)c2)C1)OC)N(C)C(=O)[C@@H](NC(=O)[C@H](C(C)C)N(C)C)C(C)C (single isomer, unassigned) [Example 60-P2] | 0.71 | 0.6 | 1.01 | – | – | –
6 | CC[C@H](C)[C@@H]([C@@H](CC(=O)N1CCC[C@H]1[C@H](OC)[C@@H](C)C(=O)N1CCS(=O)(=O)[C@H](c2cccc(N)c2)C1)OC)N(C)C(=O)[C@@H](NC(=O)[C@H](C(C)C)N(C)C)C(C)C (single isomer, unassigned) [Example 61-P1] | 93.9 | 49.5 | 34.6 | – | – | –
7 | CC[C@H](C)[C@@H]([C@@H](CC(=O)N1CCC[C@H]1[C@H](OC)[C@@H](C)C(=O)N1CCS(=O)(=O)[C@@H](c2cccc(N)c2)C1)OC)N(C)C(=O)[C@@H](NC(=O)[C@H](C(C)C)N(C)C)C(C)C (single isomer, unassigned) [Example 61-P2] | 56.3 | 24.3 | 13.3 | – | – | –
8 | CC[C@H](C)[C@@H]([C@@H](CC(=O)N1CCC[C@H]1[C@H](OC)[C@@H](C)C(=O)N[C@H](CCl)Cc1cccc(N)c1)OC)N(C)C(=O)[C@@H](NC(=O)[C@H](C(C)C)N(C)C)C(C)C [Example 1, (S)-N-((3R,4S,5S)-1-((S)-2-((1R,2R)-3-(((S)-1-(3-aminophenyl)-3-chloropropan-2-yl)amino)-1-methoxy-2-methyl-3-oxopropyl)pyrrolidin-1-yl)-3-methoxy-5-methyl-1-oxoheptan-4-yl)-2-((S)-2-(dimethylamino)-3-methylbutanamido)-N,3-dimethylbutanamide] | 0.74 | 0.41 | 0.63 | – | – | –
9 | C#C[C@H](Cc1cccc(N)c1)NC(=O)[C@H](C)[C@@H](OC)[C@@H]1CCCN1C(=O)C[C@@H](OC)[C@H]([C@@H](C)CC)N(C)C(=O)[C@@H](NC(=O)[C@H](C(C)C)N(C)C)C(C)C [Example 2, (S)-N-((3R,4S,5S)-1-((S)-2-((1R,2R)-3-(((S)-1-(3-aminophenyl)-but-3-yn-2-yl)amino)-1-methoxy-2-methyl-3-oxopropyl)pyrrolidin-1-yl)-3-methoxy-5-methyl-1-oxoheptan-4-yl)-2-((S)-2-(dimethylamino)-3-methylbutanamido)-N,3-dimethylbutanamide] | 0.51 | 0.21 | 0.36 | – | – | –
10 | CC[C@H](C)[C@@H]([C@@H](CC(=O)N1CCC[C@H]1[C@H](OC)[C@@H](C)C(=O)N[C@@H](Cc1cccc(N)c1)C(N)=O)OC)N(C)C(=O)[C@@H](NC(=O)[C@H](C(C)C)N(C)C)C(C)C [Example 3, (S)-N-((3R,4S,5S)-1-((S)-2-((1R,2R)-3-(((S)-1-amino-3-(3-aminophenyl)-1-oxopropan-2-yl)amino)-1-methoxy-2-methyl-3-oxopropyl)pyrrolidin-1-yl)-3-methoxy-5-methyl-1-oxoheptan-4-yl)-2-((S)-2-(dimethylamino)-3-methylbutanamido)-N,3-dimethylbutanamide] (NMe2Val-V[Dil][Dolaproine][Phe(3-NH2)]-NH2) | 38.4 | 18.9 | 25.1 | – | – | –
11 | CC[C@H](C)[C@@H]([C@@H](CC(=O)N1CCC[C@H]1[C@H](OC)[C@@H](C)C(=O)N[C@@H](Cc1cccc(N)c1)C(=O)NC)OC)N(C)C(=O)[C@@H](NC(=O)[C@H](C(C)C)N(C)C)C(C)C [Example 4, (S)-N-((3R,4S,5S)-1-((S)-2-((1R,2R)-3-(((S)-3-(3-aminophenyl)-1-(methylamino)-1-oxopropan-2-yl)amino)-1-methoxy-2-methyl-3-oxopropyl)pyrrolidin-1-yl)-3-methoxy-5-methyl-1-oxoheptan-4-yl)-2-((S)-2-(dimethylamino)-3-methylbutanamido)-N,3-dimethylbutanamide] (NMe2Val-V[Dil][Dolaproine][Phe(3-NH2)]-NHMe) | 14.7 | 5.26 | 6.12 | – | – | –
12 | C=CCN(CCc1cccc(N)c1)C(=O)[C@H](C)[C@@H](OC)[C@@H]1CCCN1C(=O)C[C@@H](OC)[C@H]([C@@H](C)CC)N(C)C(=O)[C@@H](NC(=O)[C@H](C(C)C)N(C)C)C(C)C [Example 5, (S)-N-((3R,4S,5S)-1-((S)-2-((1R,2R)-3-(allyl(3-aminophenethyl)amino)-1-methoxy-2-methyl-3-oxopropyl)pyrrolidin-1-yl)-3-methoxy-5-methyl-1-oxoheptan-4-yl)-2-((S)-2-(dimethylamino)-3-methylbutanamido)-N,3-dimethylbutanamide] | 4.28 | 3.56 | 8.81 | – | – | –
13 | CC[C@H](C)[C@@H]([C@@H](CC(=O)N1CCC[C@H]1[C@H](OC)[C@@H](C)C(=O)N1CCO[C@H](c2cccc(N)c2)C1)OC)N(C)C(=O)[C@@H](NC(=O)[C@H](C(C)C)N(C)C)C(C)C [Example 48, (S)-N-((3R,4S,55)-1-((S)-2-((1R,2R)-3-((R)-2-(3-aminophenyl)morpholino)-1-methoxy-2-methyl-3-oxopropyl)pyrrolidin-1-yl)-3-methoxy-5-methyl-1-oxoheptan-4-yl)-2-((S)-2-(dimethylamino)-3-methylbutanamido)-N,3-dimethylbutanamide] | – | – | – | 4.73 | 2.06 | –
14 | CC[C@H](C)[C@@H]([C@@H](CC(=O)N1CCC[C@H]1[C@H](OC)[C@@H](C)C(=O)N1CCO[C@@H](c2cccc(N)c2)C1)OC)N(C)C(=O)[C@@H](NC(=O)[C@H](C(C)C)N(C)C)C(C)C [Example 51, (S)-N-((3R,4S,SS)-1-((S)-2-((1R,2R)-3-((S)-2-(3-aminophenyl)morpholino)-1-methoxy-2-methyl-3-oxopropyl)pyrrolidin-1-yl)-3-methoxy-5-methyl-1-oxoheptan-4-yl)-2-((S)-2-(dimethylamino)-3-methylbutanamido)-N,3-dimethylbutanamide] | – | – | – | 16.1 | 6.03 | –
